Assay [1] concerns the target cloned human P2Y1 receptors (Homo sapiens (Human), UniProt P47900). Briefly: Binding Assay A: membrane binding assay, [33P] 2MeS-ADP, WGA FlashPlates. The source says: A membrane binding assay was used to identify inhibitors of [^33P] […] The cDNA clone for human P2Y1 was obtained from Incyte Pharmaceuticals and its sequence confirmed by established techniques (for a compendium of techniques used see Ausubel, F. et al. Current Protocols in Molecular Biology, John Wiley and Sons, NY, N.Y. (1995)). The essential coding sequences were subcloned into pCDNA 3.1 (Invitrogen) to produce a P2Y1 expression construct. This construct was then transfected into the human embryonic kidney cell line HEK-293 and stable transfectants selected in GENETICIN® (G418 sulfate; Life Technologies). […] Membranes were prepared by growing HEK293 #49 in 150 mm dishes in DMEM/10% FBS in the presence of 1 mg/ml G418 until cells were 80-90% confluent. Plates were then washed with cold (4° C.) D-PBS twice and cells harvested by scraping into 10 mL D-PBS. Cells were pelleted by centrifugation (1,000 g, 10 min, 4° C.) and the resulting pellet resuspended in Lysis Buffer (10 mM Tris (7.4), 5 mM MgCl2 containing Complete protease inhibitor cocktail (Roche Cat #1873580) as recommended by the manufacturer). The suspension was then homogenized in a Dounce homogenizer (10-15 strokes; B pestle, on ice) and the homogenate spun at 1,000 g, 4° C., 5 min to pellet large debris. The supernatant was centrifuged at 150,000 g, 4° C., for 1 hour and the resulting membrane pellet resuspended in 0.5-1 mL of Buffer B (15 mM HEPES (7.4), 145 mM NaCl, 0.1 mM MgCl2, 5 mM EDTA, 5 mM KCl) and stored at −70° C. until used.
Binding reactions were performed in WGA FlashPlates (PerkinElmer Life Sciences, Cat # SMP105A) in a volume of 200 μL containing ˜45 fmol of P2Y1 receptor (5 μg of total protein), 0.5 nM [^33P] […] Reactions were allowed to proceed to completion at room temperature for 1 hour and then the aqueous solution aspirated. Plates were sealed and the residual [^33P] bound to the plate determined by scintillation counting.

Assay [2] deals with human platelet rich plasma (PRP). Briefly: ADP induced platelet aggregation assay. Format: cell-based. As to conditions: 5 min, read-out: PA IC50 (μM) @ 10 μM ADP. On the procedure:
ADP Induced Platelet Aggregation Assay
The ability of P2Y1 antagonists covered in the present invention to inhibit platelet aggregation induced by 10 μM ADP was tested using human platelet rich plasma (PRP) as described in Platelet Protocols: Research and Clinical Laboratory Procedures (White, M. M. et al., Academic Press (1999)). Human blood was collected in 30 μM (final concentration in blood) argatroban (GSK) as the anticoagulant at a ratio of 1 ml per 9 ml of blood. The PRP was isolated by centrifugation at 170 g for 12 minutes. The platelet poor plasma (PPP) was used as the blank for optical aggregometry. Compounds of the present invention in DMSO solution was preincubated with 250 μl PRP at 37° C. for 1 minute with stirring speed of 1000 rpm. Aggregation was initiated by addition of 2.5 μl of 1 mM ADP (Chrono-log, Havertown, Pa.) for a final ADP concentration of 10 uM. Platelet aggregation was monitored using Optical Aggregometer (Chrono-log, Havertown, Pa.) and the area under the curve (AUC) at 5 minute was measured. IC50 was calculated using vehicle control as 0% inhibition.
The platelet aggregation assay measures the in vitro antiplatelet activity of a compound in platelet rich plasma. The assay is sensitive to plasma protein binding, and is believed to be a better predictor of actual in vivo activity.

Where [3] appears, read: starred values, FlashPlate, 0.5 nM [33P] 2MeS-ADP, Cheng-Prusoff, read-out: P2Y1 Ki (nM), *Using binding assay A.
[4] abbreviates: read-out: P2Y1 Ki (nM), *Using binding assay A.

Read-outs that look alike come from different tables or passages of the source.

cloned human P2Y1 receptors, sequence (P47900 whole entry): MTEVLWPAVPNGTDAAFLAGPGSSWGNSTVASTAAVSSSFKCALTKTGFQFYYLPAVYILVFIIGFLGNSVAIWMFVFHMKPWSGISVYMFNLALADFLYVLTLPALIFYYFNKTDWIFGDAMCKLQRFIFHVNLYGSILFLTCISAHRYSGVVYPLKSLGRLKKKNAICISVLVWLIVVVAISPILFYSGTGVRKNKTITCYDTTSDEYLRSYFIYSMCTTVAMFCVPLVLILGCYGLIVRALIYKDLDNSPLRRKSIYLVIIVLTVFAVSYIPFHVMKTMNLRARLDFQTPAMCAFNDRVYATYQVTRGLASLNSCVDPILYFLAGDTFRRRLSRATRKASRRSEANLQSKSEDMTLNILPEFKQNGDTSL

`CC(C)(C)CN1CCC2(CC1)CN(c1ccccc1Nc1nnc(-c3ccc(C(F)(F)F)cc3)s1)c1c(O)ccc(Cl)c12` [Example 7, 4-Chloro-1′-neopentyl-1-(2-(5-(4-(trifluoromethyl)phenyl)-1,3,4-thiadiazol-2-ylamino)phenyl)spiro[indoline-3,4′-piperidin]-7-ol]: the Ki (in general, the dissociation constant of the complex between target and ligand, obtained from inhibition or displacement) in assay [1] worked out at 3.3 nM. In assay [2], the half-maximal inhibitory concentration (IC50) (usually the midpoint of a concentration-inhibition curve) turned out to be 2.7 µM.
For the molecule `Cc1cc(-c2nnc(Nc3ccccc3N3CC4(CCN(CC(C)(C)C)CC4)c4c(Cl)ccc(O)c43)s2)n(C)n1` [Example 13, 4-Chloro-1-(2-((5-(1,3-dimethyl-1H-pyrazol-5-yl)-1,3,4-thiadiazol-2-yl)amino)phenyl)-1′-neopentylspiro[indoline-3,4′-piperidin]-7-ol], the Ki in assay [1] (setting [3]) was found to be 6.6 nM. Besides, in assay [2], the half-maximal inhibitory concentration (IC50) came to 0.9 µM.
Regarding `CC(C)(C)CN1CCC2(CC1)CN(c1ccccc1Nc1nc(C(F)(F)F)c(-c3ccccc3)s1)c1ccccc12` [Comparator 4, reference compound], the inhibition constant (Ki) in assay [1] (setting [4]) is 7.9 nM. Further, the IC50 in assay [2] was over 40 µM.
`CC(C)(C)CN1CCC2(CC1)CN(c1ccccc1Nc1nnc(-c3ccc(C(F)(F)F)nc3)s1)c1c(O)ccc(Cl)c12` [Example 15, 4-Chloro-1′-neopentyl-1-(2-((5-(6-(trifluoromethyl)pyridin-3-yl)-1,3,4-thiadiazol-2-yl)amino)phenyl)spiro[indoline-3,4′-piperidin]-7-ol] came in with a Ki in assay [1] of 5.7 nM. For the same molecule, the IC50 in assay [2] is 1.6 µM.
Turning to `CC(C)(C)CN1CCC2(CC1)CN(c1ccccc1Nc1nnc(-c3cnccn3)s1)c1c(O)ccc(Cl)c12` [Example 12, 4-Chloro-1′-neopentyl-1-(2-((5-(pyrazin-2-yl)-1,3,4-thiadiazol-2-yl)amino)phenyl)spiro[indoline-3,4′-piperidin]-7-ol], the Ki in assay [1] (setting [3]) turned out to be 6.5 nM. In assay [2], the IC50 is 0.9 µM.
Consider `COC(=O)c1sc(Nc2ccccc2N2CC3(CCN(CC(C)(C)C)CC3)c3ccccc32)nc1C` [Comparator 3, reference compound], for which the inhibitory constant (Ki) in assay [1] (setting [4]) was 18 nM. For the same molecule, in assay [2], the half-maximal inhibitory concentration (IC50) is over 40 µM.
For the molecule `CC(C)(C)CN1CCC2(CC1)CN(c1ccccc1Nc1nnc(C3CCOCC3)s1)c1c(O)ccc(Cl)c12` [Example 14, 4-Chloro-1′-neopentyl-1-(2-((5-(tetrahydro-2H-pyran-4-yl)-1,3,4-thiadiazol-2-yl)amino)phenyl)spiro[indoline-3,4′-piperidin]-7-ol], the inhibitory constant (Ki) in assay [1] (setting [4]) was determined as 155 nM. The 50% inhibitory concentration (IC50) in assay [2] amounted to 23 µM.
For `CCOC(=O)c1sc(Nc2ccccc2N2CC3(CCN(CC(C)(C)C)CC3)c3ccccc32)nc1C(F)(F)F` [Comparator 2, reference compound] the same measures were 6.3 nM and over 40 µM.
For the molecule `CC(C)(C)CN1CCC2(CC1)CN(c1ccccc1Nc1nnc(-c3cccnc3)s1)c1c(O)ccc(Cl)c12` [Example 9, 4-Chloro-1′-neopentyl-1-(2-((5-(pyridin-3-yl)-1,3,4-thiadiazol-2-yl)amino)phenyl)spiro[indoline-3,4′-piperidin]-7-ol], in assay [1], the affinity, expressed as Ki, was 24.3 nM. For the same molecule, in assay [2], the IC50 stood at 8.5 µM.
Take `CC(C)(C)CN1CCC2(CC1)CCN(c1ccccc1Nc1nc3ccc(C(C)(C)C)cc3[nH]1)c1ccccc12` [Comparator 1, reference compound]: the inhibition constant (Ki) in assay [1] (setting [4]) is 259 nM. Moreover, the IC50 in assay [2] was over 40 µM.

The values are drawn from patent US9120798B2, “Amino-heteroaryl 7-hydroxy-spiropiperidine indolinyl antagonists of P2Y1 receptor” (priority 2012, dated 2015).
